Laboratory results taken from US12492230B2, “Antigenic peptides deriving from secretogranin V and uses thereof for the diagnosis and treatment of type 1 diabetes” (INSERM (Institut National de la Santé et de la Recherche …, priority 2018, dated 2025).
Where no end group is shown, it is not given here.

Experiments:
Type in all cases: cell-based, human
circulating CD8+ T cells [1] = assay: Ex vivo combinatorial HLA-A2 multimer (MMr) staining of PBMCs; settings: for frequency of circulating MMr+ CD8+ T cells (in words): HLA-A2+ recent-onset T1D and healthy subjects; for median frequency in peripheral blood: T1D patients, fraction of CD8+ T cells
Method: All peptides were synthesized at >90% purity (Synpeptides). HLA-A2 MMrs were produced as described (Leisner et al., 2008) and staining performed in the presence of 50 nM dasatinib (Lissina et al., 2009), as described (Culina et al., 2018). Briefly, cryopreserved PBMCs were magnetically depleted of CD8^− cells (StemCell Technologies), stained with the combinatorial MMr panels (Hadrup et al., 2009) and acquired using a FACSAria III cytometer.

circulating CD8+ T cells [2] = assay: Ex vivo HLA-A3 multimer (MMr) staining of PBMCs; settings: for positive hits for the HLA-A3 restriction: HLA-A3+ T1D and healthy donors
Method: HLA-A3 MMrs were produced and used as described (Gonzalez-Duque, Cell Metab 2018). Each peptide-HLA-A3 complex was used at a final concentration of 8-27 nM and conjugated with fluorochrome-labeled streptavidin at a 1:4 ratio. The concentration of each fluorescent MMr was corrected for the variable staining index of each streptavidin, in order to obtain a distinct double-MMr+ population for each fluorochrome pair. Compensations were set using fluorescence-minus-one samples (i.e. omitting one streptavidin at a time).
PBMCs were thawed at 37° C. and immediately diluted in pre-warmed AIM-V medium. Following centrifugation and one additional wash in AIM-V, PBMCs were counted and rested in the presence of 50 nM dasatinib for 30 min at 37° C. to prevent internalization of T-cell receptors before magnetic depletion of CD8^− cells (StemCell Technologies). Staining was performed for 20 min at 20° C. in […] PBS-dasatinib for 10^7 cells with combinatorial double-coded MMr panels, followed, without washing, by CD3-APC-H7 (RRID AB_1645475), CD8-PE-Cy7 (AB_396852), CD45RA-FITC (AB_395879), CCR7-BV421 (AB_2728119) monoclonal antibodies and Live/Dead Aqua (ThermoFisher) staining at 4° C. for 20 min. After one wash, cells were acquired using a FACSAria III cytometer. […] Flow cytometry data were analyzed with FlowJo v10 and Graphpad Prism 7.0 software. Cells were sequentially gated on small lymphocytes, singlets, live cells (Live/Dead Aqua^−), CD3^+CD8^+ T cells and total PE^+, PE-CF594^+, APC^+, BV650^+, BV711^+ and BV786^+MMr^+ T cells. Using Boolean operators, these latter gates allowed to selectively visualize each double-MMr^+ population by including only those events positive for the corresponding fluorochrome pair. For example, SCG3166-174 MMr^+ cells (PE^+PE-CF594^+) were visualized by gating on events that were PE^+PE-CF594^+APC^−BV650^−BV711^−BV786^−. Events negative for all MMr fluorochromes (PE^−PE-CF594^−APC^−BV650^−BV711^−BV786^−) were represented in the same PE/PE-CF-594 dot plot to set the double-MMr^+ gate. CD45RA and CCR7 staining was subsequently visualized by gating on these MMr^+ cells.

[3] = tested on: pancreas-infiltrating cells of HLA-A2+ T1D patients; assay: In-situ HLA-A2 MMr staining on pancreas sections; settings: 2 HLA-A2+ T1D cases, nPOD tissue sections
Method: In-situ staining was performed as described (Culina et al., 2018). Unfixed, frozen sections were dried for 2 h, loaded with 1 μg of MMrs overnight at 4° C., washed gently with phosphate-buffered saline and fixed in 2% paraformaldehyde for 10 min. After a further wash, endogenous peroxidase activity was blocked with 0.3% H2O2. Sections were then incubated serially with rabbit anti-phycoerythrin, horseradish peroxidase-conjugated swine anti-rabbit and 3,3′-diaminobenzidine tetrahydrochloride substrate (ThermoFisher). After a final wash, sections were counterstained with hematoxylin, dehydrated via sequential passages in 95-100% ethanol and xylene, mounted and analyzed using a Nikon Eclipse Ni microscope with NIS-Elements Analysis D software v4.40.

[4] = HLA-A2+ healthy donors, screening

Row | Substance | cognate naïve CD8+ T-cell repertoire (frequency 1-50/10^6 CD8+ T cells, clustered MMr staining, in ≥50% of individuals) (circulating CD8+ T cells [1]; [4]) | positive hits for the HLA-A3 restriction (circulating CD8+ T cells [2]) | also measured
1 | FLSGAVNRL | validated |  | frequency of circulating MMr+ CD8+ T cells (in words) (circulating CD8+ T cells [1]): particularly high and clustered
2 | SCG3166-174: HLA-A3-restricted islet peptide from secretogranin III (AVFDKIVSK) |  | positive hits | 
3 | CHGA344-352: HLA-A2-restricted HLA-eluted β-cell peptide from chromogranin A, maps to the WE-14 neuropeptide (KMDQLAKEL) | validated |  | 
4 | PCSK230-38: HLA-A2-restricted HLA-eluted β-cell peptide from proprotein convertase 2 (FTNHFLVEL) | validated |  | 
5 | IAPP15-17/IAPP5-10: peptide splice product from fusion of IAPP15-17 and IAPP5-10, HLA-A2-restricted (VALKLQVFL) |  |  | recognition by circulating CD8+ T cells, donors (circulating CD8+ T cells [1]; [4]): 1 of 6; median frequency in peripheral blood (circulating CD8+ T cells [1]): 1.6×10^−6; in-situ MMr staining of pancreas sections [3]: MMr^+ cells could be detected
6 | YLQGQRLDNV | validated |  | 
7 | UCN31-9: HLA-A2-restricted HLA-eluted β-cell peptide from urocortin-3 leader sequence (MLMPVHFLL) | validated |  | frequency of circulating MMr+ CD8+ T cells (in words) (circulating CD8+ T cells [1]): particularly high and clustered
8 | KIF1A1347-1355: HLA-A2-restricted HLA-eluted β-cell peptide from kinesin family member 1A (VLDTSVAYV) | validated |  | 
9 | UCN346-56: HLA-A3-restricted islet peptide from urocortin-3 (GQWEDASLLSK) |  | positive hits | 
10 | PNMA250-58: HLA-A3-restricted islet peptide candidate, not validated (RLLGKIFRK) |  |  | validation as CD8+ T-cell epitopes (circulating CD8+ T cells [2]; second validation round, PBMCs from T1D and healthy donors): single exception
11 | ISL1276-284: HLA-A2-restricted HLA-eluted peptide from insulin gene enhancer protein ISL1 (GLQANPVEV) | validated |  | median frequency in peripheral blood (circulating CD8+ T cells [1]): 7.2×10^−6; in-situ MMr staining of pancreas sections [3]: MMr^+ cells could be detected
12 | ZnT8186-184: positive control islet peptide (VAANIVLTV; UniProt Q8IWU4 186-194, looked up, fragment) [reference compound] |  |  | in-situ MMr staining of pancreas sections [3]: observed
13 | PTPRN576-580/708-711: spliced peptide derived from the fusion of two non-contiguous IA-2 sequences, HLA-A3 (SVLLTRLAK) |  | identified | 
14 | RLKPSLVGK |  | positive hits | 
15 | KCNK16129-137: HLA-A2-restricted HLA-eluted β-cell peptide from KCNK16 (ALLGIPLNV) | validated |  | 
16 | KIF1A860-868: HLA-A3-restricted islet peptide from KIF1A (LLYPVPLVH) |  | positive hits | 
